Measured values reported in patent US11613544B2, “Substituted imidazo[1,5-a]pyrazines for modulation of IRE1” (THE REGENTS OF THE UNIVERSITY OF CALIFORNIA, priority 2012, dated 2023).
“Also recorded” adds a separate entry of the source.

Legend:
Abl = Abl (Homo sapiens, UniProt P00519); assay: Kinase panel counter-screen; format: biochemical; details: tested against 12 kinases of the panel
IRE1α* [1] = target: T1, IRE1α* (Homo sapiens, UniProt O75460); assay: IRE1α* autophosphorylation kinase assay ([γ-32P]ATP, autoradiography); details: in vitro
T1 sequence (O75460 with tags, fused parts or gaps): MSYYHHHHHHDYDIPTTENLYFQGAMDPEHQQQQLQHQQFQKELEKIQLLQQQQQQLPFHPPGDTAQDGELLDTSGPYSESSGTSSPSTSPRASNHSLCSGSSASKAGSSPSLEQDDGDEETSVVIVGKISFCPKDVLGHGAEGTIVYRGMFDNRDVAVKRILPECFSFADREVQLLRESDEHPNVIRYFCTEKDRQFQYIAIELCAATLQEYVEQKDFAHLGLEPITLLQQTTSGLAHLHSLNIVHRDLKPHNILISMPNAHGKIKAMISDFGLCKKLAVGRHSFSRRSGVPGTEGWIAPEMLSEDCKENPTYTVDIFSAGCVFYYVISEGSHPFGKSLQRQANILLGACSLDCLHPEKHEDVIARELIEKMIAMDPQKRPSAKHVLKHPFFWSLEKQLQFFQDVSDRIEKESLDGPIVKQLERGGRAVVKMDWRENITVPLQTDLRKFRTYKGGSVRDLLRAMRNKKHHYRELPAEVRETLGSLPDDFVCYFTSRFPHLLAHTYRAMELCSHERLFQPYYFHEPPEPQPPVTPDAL
Protocol: Inhibitors (initial concentration=80 μM, 2-fold serial dilutions) were incubated with IRE1α in cleavage buffer (20 mM Hepes at pH 7.5, 0.05% Triton X100, 50 mM KOAC, 1 mM Mg(OAC)2, 1 mM DTT) for 20 min, followed by incubation with 10 μCi [γ-^32P]ATP (3000 Ci/mmol, Perkin Elmer) at RT for 30 min. Samples were then separated by SDS-PAGE, and autoradiographed. The auto-phosphorylation level were quantified by setting the band intensity of IRE1α* without compound treatment as 1 and the background as 0.

IRE1α* [2] = target: T1, IRE1α*; details: in vitro
IRE1α* [3] = target: T1, IRE1α*; assay: IRE1α* DSS cross-linking to determine oligomer to monomer ratio; details: saturating compound (200 μM), DSS 250 μM
Protocol: The reaction was quenched by addition of 50 mM Tris-HCl (pH 7.5). The samples were then boiled, resolved on SDS-PAGE, and immunoblotted for IRE1α with an anti-IRE1α antibody, (visualization and quantification with a LI-COR Odyssey scanner).

INS-1 cells = assay: Terminal UPR endpoints and apoptosis in cells under ER stress; format: cell-based, rat
Text: Using rat insulinoma (INS-1) cells that have a well-developed ER and secrete insulin, the duration and magnitude of ER stress that triggers apoptosis were quantified. Two variables-concentration of ER stress inducer (e.g. Thapsigargin-Tg) and time of exposure to the agent—are directly linked to the percentage of cells entering apoptosis (FIG. 28, A and B). Such regimes can be defined for other ER stress inducers such as the glycosylation inhibitor, tunicamycin (Tm) (FIG. 28,C). Increasing ER stress causes progressive increases in endogenous IRE1α phosphorylation, increases in XBP1 mRNA splicing (FIG. 28, E), depletion through endonucleolytic decay of the ER-localized mRNA, Ins1, which encodes proinsulin (FIG. 28, F), and induction of the pro-apoptotic transcription factor, CHOP (FIG. 28, G).
KIRAs break high-order oligomerization of IRE1α kinase domains, attenuate RNAse activity, and reduce entry of cells into the Terminal UPR.
A model of KIRA6-mediated cytoprotection is shown (FIG. 30, J); it posits that the type II kinase inhibitor, KIRA6, reduces kinase/RNAse homo-oligomerization on the cytosolic face of IRE1α, which consequently reduces RNase hyperactivity under ER stress, preventing pro-apoptotic ER-localized mRNA decay and granting cells extended reprieve from programmed cell death.

IRE1α* (WT) = target: T2, IRE1α* (WT) (Homo sapiens, UniProt O75460); assay: In vitro cleavage of pre-miR-17 by IRE1α*; format: biochemical
T2 construct: 6-His-tag (N); made in house; host or cells: SF9 insect cells (Bac-to-Bac baculovirus)
T2 sequence (O75460 with tags, fused parts or gaps): as above
Text: FIG. 31. […] Sequence legend (FIG. 31B): SEQ ID NOs:11-15 (in order top to bottom); (FIG. 31C): SEQ ID NO:16.
Described herein is the characterization of four select miRs that decay in vivo upon IRE1α hyperactivation. These are miR-17, miR-34a, miR-96, and miR-125b. WT-IRE1α directly cleaved pre-miR-17 in vitro at sites distinct from those cleaved by DICER, as mapped by primer extension. The scission sites of pre-miR-17 are identical to those of XBP1 mRNA—(G/C)—and diverge at the flanking regions. Thus, by reducing levels of pre-miRs, IRE1α antagonizes DICER action to reduce cellular levels of the corresponding mature miRs. Intriguingly, IRE1α* (I642G), which can be activated by 1NM-PP1 to cleave XBP1 mRNA in vitro, can also cleave pre-miR-17 under 1NM-PP1. An RNAse mutant, IRE1α* (N906A), is compromised for cleavage of pre-miR-17 (FIG. 31, A-C). […] As IRE1α homo-oligomerizes in the ER membrane in proportion to the concentration of unfolded proteins in the ER lumen, it progressively trans-autophosphorylates. Furthermore, salt bridges between phospho-amino acid groups and other residues reinforce higher-order homo-oligomerization of kinase/RNAse domains, as was shown using yeast IRE1. Thus, as IRE1α protein clusters into higher-order oligomers, it acquires increasing activity towards its RNA substrates. […]

[4] = tested on: pancreatic islets from C57BL/6 mice; assay: Pancreatic islets treated with ER stress inducer (Tm); format: cell-based, mouse
Protocol: FIG. 30. KIRA6 inhibits IRE1α autophosphorylation, breaks oligomers, reduces RNase activity, and protects cells from entry into apoptosis. (A) Structure of KIRA6. (B) RNase activities of IRE1α* under varying [KIRA6]; half-maximum effective concentration (EC50) values were determined by fitting normalized fluorescence intensities (mean±s.d., n=3). (C) Inhibition of IRE1α* kinase activity in vitro by KIRA6; IC50 values were determined by fitting percent phosphorylation. […] (E) Immunoblots of IRE1α* (WT) incubated with DMSO or KIRA6 (200 μM) followed by treatment with the crosslinker DSS (250 μM); quantification is on the right. (F) Agarose gel of XBP1 cDNA amplicons from INS-1 cells pre-treated with indicated concentrations of KIRA6 for 1 h, followed by 0.5 μg/ml Tm for 8 h. […] (H) KIRAs reduce entry of INS1-1 cells into apoptosis. (I) Immunofluorescence of islets from 10 wk old C57BL/6 mice treated with 0.5 μg/mL Tm plus/minus 0.5 μM KIRA6 for 16 hr. Co-stained for DAPI, insulin, and TUNEL; Quantification of TUNEL positive β-cells (white arrows) normalized to DAPI-positive cells is shown. […] (K) Model of how KIRA6 prevents the terminal UPR by inhibiting IRE1α. […]

Src = Src (Homo sapiens, UniProt P12931); assay: Kinase panel counter-screen; format: biochemical; details: tested against 12 kinases of the panel
Sequence of Src (P12931 whole entry, species assumed): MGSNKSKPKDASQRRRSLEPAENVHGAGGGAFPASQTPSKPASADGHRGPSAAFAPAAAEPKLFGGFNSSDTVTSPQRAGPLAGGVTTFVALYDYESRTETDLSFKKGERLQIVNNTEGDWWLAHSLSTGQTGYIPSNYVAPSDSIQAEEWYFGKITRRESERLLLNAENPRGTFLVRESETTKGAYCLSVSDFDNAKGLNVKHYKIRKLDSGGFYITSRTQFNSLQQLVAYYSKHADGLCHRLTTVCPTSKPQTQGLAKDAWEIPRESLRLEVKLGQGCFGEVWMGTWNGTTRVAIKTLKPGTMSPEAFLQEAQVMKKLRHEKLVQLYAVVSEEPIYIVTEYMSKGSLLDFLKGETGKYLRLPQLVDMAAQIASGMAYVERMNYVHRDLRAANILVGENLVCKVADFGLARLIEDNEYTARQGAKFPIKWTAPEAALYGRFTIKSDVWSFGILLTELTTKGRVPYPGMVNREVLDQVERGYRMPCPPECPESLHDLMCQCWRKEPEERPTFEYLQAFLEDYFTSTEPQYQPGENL

[5] = tested on: mouse embryonic fibroblasts (MEFs); assay: Cytoprotection in mouse embryonic fibroblasts; format: cell-based
retinal photoreceptors = assay: Intravitreal injection in rat models of retinal degeneration (tunicamycin; P23H rhodopsin); format: in vivo
Protocol: Based on known rat vitreous volumes, 2 μl was injected intravitreally into each eye. Tm ([…] final concentration) plus/minus KIRA6 (10 μM final concentration) was injected into SD rats at P21 with an equivalent amount of DMSO as a vehicle control. Retinas were collected at 48 and 72 hrs after injections in Trizol (Invitrogen) for qPCR analysis. Eyes were examined by optical coherence tomography (OCT) 7 days post injection and subsequently collected for morphological analysis. […]
Mice were anaesthetized with 1.5-3% isoflurane, eyes were dilated with 2.5% phenylephrine hydrochloride and 1% tropicamide, and corneas were kept moist with regular application of 2.5% methylcellulose. Eyes were examined using a Micron III retinal imaging system (Phoenix Research Labs). Spectral domain OCT images were acquired with a Micron Image Guided OCT System (Phoenix Research Labs) by averaging 10 to 50 scans.
Outer nuclear layers (ONL) were quantified as previously described (Lewin, A. S. et al., Nature medicine 4, 967-971 (1998)). Briefly, rats were euthanized by CO2 inhalation and their eyes were immediately enucleated and immersed in 2% paraformaldehyde and 2.5% glutaraldehyde in phosphate buffered saline. […] ONL thickness was measured at 54 locations around the retina using Bioquant image analysis (Bioquant; R&M Biometrics).

Sequence of Abl (P00519 whole entry, species assumed): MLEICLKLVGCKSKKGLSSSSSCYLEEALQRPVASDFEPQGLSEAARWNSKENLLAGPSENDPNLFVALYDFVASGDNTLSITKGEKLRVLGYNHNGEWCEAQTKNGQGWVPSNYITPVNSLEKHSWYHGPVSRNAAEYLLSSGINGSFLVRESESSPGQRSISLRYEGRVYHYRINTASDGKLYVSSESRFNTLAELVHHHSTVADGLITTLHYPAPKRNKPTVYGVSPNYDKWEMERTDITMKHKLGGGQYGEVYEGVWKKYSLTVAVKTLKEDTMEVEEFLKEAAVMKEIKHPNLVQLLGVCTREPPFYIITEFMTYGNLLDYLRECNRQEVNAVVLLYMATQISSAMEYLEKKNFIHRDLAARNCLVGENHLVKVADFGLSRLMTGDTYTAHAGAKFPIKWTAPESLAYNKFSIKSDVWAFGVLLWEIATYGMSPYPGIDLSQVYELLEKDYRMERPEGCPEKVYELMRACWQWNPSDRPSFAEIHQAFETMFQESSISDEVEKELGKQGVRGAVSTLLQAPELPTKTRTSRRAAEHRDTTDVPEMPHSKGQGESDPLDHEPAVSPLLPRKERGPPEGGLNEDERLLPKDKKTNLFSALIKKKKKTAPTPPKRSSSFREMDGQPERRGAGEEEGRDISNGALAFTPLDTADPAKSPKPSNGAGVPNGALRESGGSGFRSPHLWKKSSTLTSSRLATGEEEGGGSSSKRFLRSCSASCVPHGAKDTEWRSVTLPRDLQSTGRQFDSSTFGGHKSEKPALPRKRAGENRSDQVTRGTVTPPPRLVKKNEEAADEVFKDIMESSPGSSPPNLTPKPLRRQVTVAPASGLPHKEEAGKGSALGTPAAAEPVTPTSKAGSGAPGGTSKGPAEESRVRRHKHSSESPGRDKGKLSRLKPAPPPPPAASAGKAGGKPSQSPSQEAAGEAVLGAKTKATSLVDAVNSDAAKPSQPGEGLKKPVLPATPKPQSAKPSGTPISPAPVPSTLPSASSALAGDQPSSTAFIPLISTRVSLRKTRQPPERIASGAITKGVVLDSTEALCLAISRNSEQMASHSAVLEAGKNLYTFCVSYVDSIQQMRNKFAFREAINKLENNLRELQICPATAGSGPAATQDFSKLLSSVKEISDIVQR

CC(C)(C)c1nc(-c2ccc(NC(=O)Nc3cccc(C(F)(F)F)c3)c3ccccc23)c2c(N)nccn12 [KIRA6, 1-(4-(8-amino-3-tert-butylimidazo[1,5-a]pyrazin-1-yl)naphthalen-1-yl)-3-(3-(trifluoromethyl)phenyl)urea]
off-target kinase inhibition (Abl): off-target inhibition observed
inhibition of IRE1α* autophosphorylation (IRE1α* [1]): dose-dependently reduces kinase autophosphorylation
modulation of IRE1α* RNase activity (XBP1 RNA cleavage) (IRE1α* [2]): inhibits IRE1α* RNase and kinase activities with similar IC50s; also recorded: dose-dependently reduces kinase autophosphorylation and XBP1 splicing activity
IRE1α* oligomer/monomer ratio (oligomerization state) (IRE1α* [3]): stabilizes the monomeric state; also recorded: reduces concentration-dependent oligomerization
ER-localized endonucleolytic decay of Ins1 mRNA (INS-1 cells; ER stress): inhibits ER-localized endonucleolytic decay of Ins1 mRNA at lower doses of the drug than needed to inhibit XBP1 mRNA splicing
caspase 2 accumulation and cleavage (INS-1 cells; FIG. 31F): reduces caspase 2 accumulation and cleavage
mature miR-17 levels (INS-1 cells; in vivo (cells), FIG. 31E): rescues mature miR-17 levels
terminal UPR endpoints / entry into apoptosis (INS-1 cells; pre-treatment before ER stress inducers): all these terminal UPR endpoints are curtailed
cleavage of pre-miR-17 by IRE1α* (IRE1α* (WT)): dose-dependently inhibits IRE1α* (WT) cleavage of pre-miR-17; also recorded: prevents cleavage of pre-miR-17 by IRE1α* in vitro
TXNIP protein accumulation ([4]; C57BL/6 islets exposed to ER stress inducers): prevents TXNIP protein accumulation
cytoprotection of pancreatic islets ([4]; islets treated with Tm): cytoprotective effects
off-target kinase inhibition (Src): off-target inhibition observed
endogenous IRE1α-mediated XBP1 mRNA splicing (endogenous IRE1α; INS-1, provoked by Tm): inhibits endogenous IRE1α-mediated XBP1 mRNA splicing
endogenous IRE1α auto-phosphorylation (endogenous IRE1α; in vivo (cells), FIG. 30D): inhibits endogenous IRE1α auto-phosphorylation in a dose-dependent manner
cytoprotective effects ([5]; Ire1α−/− MEFs): absent
cytoprotective effects ([5]; WT and Xbp1−/− MEFs): still demonstrable
outer nuclear layer (ONL) thickness vs DMSO (retinal photoreceptors; P23H-1 rats at P30, intravitreal 10 μM): higher thickness
photoreceptor loss / viability and function (retinal photoreceptors; intravitreal, rat models of retinal degeneration caused by ER stress): protects viability and preserves function of retinal photoreceptors; also recorded: prevents photoreceptor loss
